Measurements reported in patent publication US8648066B2 (Exelixis, Inc., priority 2009, dated 2014).

target: mTOR/GbL/Raptor (mTORC1) (Homo sapiens, UniProt P42345); assay: mTOR/GbL/Raptor (mTORC1) ELISA assay; assay type: biochemical; conditions: phosphorylation of 4E-BP1; 0.2 nM mTORC1, 10 μM ATP; read-out: IC50 in this assay (mTORC1 ELISA)
Summary of the method: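 Human mTORC1 (0.2 nM) phosphorylated 50 nM His-tagged 4E-BP1 with 10 µM ATP in HEPES pH 7.2 containing 10 mM MnCl2, 120 min at ambient temperature. Substrate was captured on Ni-chelate plates; phospho-4E-BP1 was detected by primary antibody and HRP secondary with luminescence.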

| SMILES | IC50 [nM] |
| --- | --- |
| CC1=Cc2ncnc(N3CCOc4ccc(-c5cnc(N)c(S(=O)(=O)NCC(C)(C)N)c5)cc4C3)c2CC1(C)C [Example 405, 2-amino-N-(2-amino-2-methylpropyl)-5-[4-(6,6,7-trimethyl-5,6-dihydroquinazolin-4-yl)-2,3,4,5-tetrahydro-1,4-benzoxazepin-7-yl]pyridine-3-sulfonamide] | ≤ 10 |
| CC(C)(N)CNS(=O)(=O)c1cc(-c2ccc3c(c2)CN(c2ncnc4c2CC(C)(C)CC4)CCO3)cnc1N [Example 406, 2-amino-N-(2-amino-2-methylpropyl)-5-[4-(6,6-dimethyl-5,6,7,8-tetrahydroquinazolin-4-yl)-2,3,4,5-tetrahydro-1,4-benzoxazepin-7-yl]pyridine-3-sulfonamide] | ≤ 10 |
| CCC(N)CNS(=O)(=O)c1cc(-c2ccc3c(c2)CN(c2ncnc4c2CC(C)(C)CC4)CCO3)cnc1N (centres unmarked) [Example 408, 2-amino-N-(2-aminobutyl)-5-[4-(6,6-dimethyl-5,6,7,8-tetrahydroquinazolin-4-yl)-2,3,4,5-tetrahydro-1,4-benzoxazepin-7-yl]pyridine-3-sulfonamide] | 10 to 50 |
| CC1(C)CCc2ncnc(N3CCOc4ccc(-c5cnc(N)c(S(=O)(=O)NCCN)c5)cc4C3)c2C1 [Example 409, 2-amino-N-(2-aminoethyl)-5-[4-(6,6-dimethyl-5,6,7,8-tetrahydroquinazolin-4-yl)-2,3,4,5-tetrahydro-1,4-benzoxazepin-7-yl]pyridine-3-sulfonamide] | ≤ 10 |
| CC(C)(CN)CNS(=O)(=O)c1cc(-c2ccc3c(c2)CN(c2ncnc4c2CC(C)(C)CC4)CCO3)cnc1N [Example 411, 2-amino-N-(3-amino-2,2-dimethylpropyl)-5-[4-(6,6-dimethyl-5,6,7,8-tetrahydroquinazol-4-yl)-2,3,4,5-tetrahydro-1,4-benzoxazepin-7-yl]pyridine-3-sulfonamide] | 10 to 50 |
| CC1(C)CCc2ncnc(N3CCOc4ccc(-c5cnc(N)c(S(=O)(=O)NCC(O)CN)c5)cc4C3)c2C1 (centres unmarked) [Example 412, 2-amino-N-(3-amino-2-hydroxypropyl)-5-[4-(6,6-dimethyl-5,6,7,8-tetrahydroquinazolin-4-yl)-2,3,4,5-tetrahydro-1,4-benzoxazepin-7-yl]pyridine-3-sulfonamide] | 10 to 50 |
| CC(C)(N)CCNS(=O)(=O)c1cc(-c2ccc3c(c2)CN(c2ncnc4c2CC(C)(C)CC4)CCO3)cnc1N [Example 413, 2-amino-N-(3-amino-3-methylbutyl)-5-[4-(6,6-dimethyl-5,6,7,8-tetrahydroquinazolin-4-yl)-2,3,4,5-tetrahydro-1,4-benzoxazepin-7-yl]pyridine-3-sulfonamide] | 50 to 250 |
| CC1(C)CCc2ncnc(N3CCOc4ccc(-c5cnc(N)c(S(=O)(=O)NCC6CNC6)c5)cc4C3)c2C1 [Example 415, 2-amino-N-(azetidin-3-ylmethyl)-5-[4-(6,6-dimethyl-5,6,7,8-tetrahydroquinazolin-4-yl)-2,3,4,5-tetrahydreo-1,4-benzoxazepin-7-yl]pyridine-3-sulfonamide] | 10 to 50 |
| Cc1nc2c(c(N3CCOc4ccc(-c5cnc(N)c(S(=O)(=O)N(C)C)c5)cc4C3)n1)CC(C)(C)CC2 [Example 417, 2-amino-N,N-dimethyl-5-[4-(2,6,6-trimethyl-5,6,7,8-tetrahydroquinazolin-4-yl)-2,3,4,5-tetrahydro-1,4-benzoxazepin-7-yl]pyridine-3-sulfonamide] | 50 to 250 |
| CC1(C)CCc2ncnc(N3CCOc4ccc(-c5cnc(N)c(S(=O)(=O)NCC6(N)CC6)c5)cc4C3)c2C1 [Example 418, 2-amino-N-[(1-aminocyclopropyl)methyl]-5-[4-(6,6-dimethyl-5,6,7,8-tetrahydroquinazolin-4-yl)-2,3,4,5-tetrahydro-1,4-benzoxazepin-7-yl]pyridine-3-sulfonamide] | 10 to 50 |
| CC1=Cc2ncnc(N3CCOc4ccc(-c5cnc(N)c(S(=O)(=O)NCC6CCN(C)CC6)c5)cc4C3)c2CC1(C)C [Example 420, 2-amino-N-[(1-methylpiperidin-4-yl)methyl]-5-[4-(6,6,7-trimethyl-5,6-dihydroquinazolin-4-yl)-2,3,4,5-tetrahydro-1,4-benzoaxepin-7-yl]pyridine-3-sulfonamide] | 250 to 1000 |
| Cc1nc2c(c(N3CCOc4ccc(-c5cnc(N)c(S(=O)(=O)N[C@@H]6CCN(C)C6)c5)cc4C3)n1)CC(C)(C)CC2 [Example 421, 2-amino-N-[(3R)-1-methylpyrrolidin-3-yl]-5-[4-(2,6,6-trimethyl-5,6,7,8-tetrahydroquinazolin-4-yl)-2,3,4,5-tetrahydro-1,4-benzoxazepin-7-yl]pyridine-3-sulfonamide] | 250 to 1000 |
| CN(C)CCNS(=O)(=O)c1cc(-c2ccc3c(c2)CN(c2ncnc4c2CC(C)(C)CC4)CCO3)cnc1N [Example 423, 2-amino-N-[2-(dimethylamino)ethyl]-5-[4-(6,6-dimethyl-5,6,7,8-tetrahydroquinazolin-4-yl)-2,3,4,5-tetrahydro-1,4-benzoxazepin-7-yl]pyridine-3-sulfonamide] | 50 to 250 |
| CC1=Cc2ncnc(N3CCOc4ccc(-c5cnc(N)c(S(=O)(=O)NC[C@H]6CCN(C)C6)c5)cc4C3)c2CC1(C)C [Example 424, 2-amino-N-{[(3S)-1-methylpyrrolidin-3-yl]methyl}-5-[4-(6,6,7-trimethyl-5,6-dihydroquinazolin-4-yl)-2,3,4,5-tetrahydro-1,4-benzoxazepin-7-yl]pyridine-3-sulfonamide] | 50 to 250 |
| CC1(C)CCc2ncnc(N3CCOc4ccc(-c5cnc(N)c(S(=O)(=O)NC6CC7CCC(C6)N7)c5)cc4C3)c2C1 (centres unmarked) [Example 425, 2-amino-N-8-azabicyclo[3.2.1]oct-3-yl-5-[4-(6,6-dimethyl-5,6,7,8-tetrahydroquinazolin-4-yl)-2,3,4,5-tetrahydro-1,4-benzoxazepin-7-yl]pyridine-3-sulfonamide] | 10 to 50 |
| CC1(C)CCc2ncnc(N3CCOc4ccc(-c5cnc(N)c(S(=O)(=O)NC6CCC6)c5)cc4C3)c2C1 [Example 427, 2-amino-N-cyclobutyl-5-[4-(6,6-dimethyl-5,6,7,8-tetrahydroquinazolin-4-yl)-2,3,4,5-tetrahydro-1,4-benzoxazepin-7-yl]pyridine-3-sulfonamide] | 50 to 250 |

More lines, now with the values ahead:

| IC50 [nM] | SMILES |
| --- | --- |
| ≤ 10 | CC1(C)CCc2ncnc(N3CCOc4ccc(-c5cnc(N)c(S(=O)(=O)NCC(O)CO)c5)cc4C3)c2C1 (centres unmarked) [Example 402, 2-amino-N-(2,3-dihydroxypropyl)-5-[4-(6,6-dimethyl-5,6,7,8-tetrahydroquinazolin-4-yl)-2,3,4,5-tetrahydro-1,4-benzoxazepin-7-yl]pyridine-3-sulfonamide] |
| 10 to 50 | CC1(C)CCc2ncnc(N3CCOc4ccc(-c5cnc(N)c(S(=O)(=O)NC(C)(C)CN)c5)cc4C3)c2C1 [Example 403, 2-amino-N-(2-amino-1,1-dimethylethyl)-5-[4-(6,6-dimethyl-5,6,7,8-tetrahydroquinazolin-4-yl)-2,3,4,5-tetrahydro-1,4-benzoxazepin-7-yl]pyridine-3-sulfonamide] |
| 10 to 50 | CC[C@H]1CCc2c(ncnc2N2CCOc3ccc(-c4cnc(N)c(S(=O)(=O)NCC(C)(C)N)c4)cc3C2)C1 [Example 407, 2-amino-N-(2-amino-2-methylpropyl)-5-{4-[(7S)-7-ethyl-5,6,7,8-tetrahydroquinazolin-4-yl]-2,3,4,5-tetrahydro-1,4-benzoxazepin-7-yl]pyridine-3-sulfonamide] |
| 50 to 250 | CC(N)CNS(=O)(=O)c1cc(-c2ccc3c(c2)CN(c2ncnc4c2CC(C)(C)CC4)CCO3)cnc1N (centres unmarked) [Example 410, 2-amino-N-(2-aminopropyl)-5-[4-(6,6-dimethyl-5,6,7,8-tetrahydroquinazolin-4-yl)-2,3,4,5-tetrahydro-1,4-benzoxazepin-7-yl]pyridine-3-sulfonamide] |
| 10 to 50 | CC1(C)CCc2ncnc(N3CCOc4ccc(-c5cnc(N)c(S(=O)(=O)NCCCN)c5)cc4C3)c2C1 [Example 414, 2-amino-N-(3-aminopropyl)-5-[4-(6,6-dimethyl-5,6,7,8-tetrahydroquinazolin-4-yl)-2,3,4,5-tetrahydro-1,4-benzoxazepin-7-yl]pyridine-3-sulfonamide] |
| 50 to 250 | CC1(C)CCc2ncnc(N3CCOc4ccc(-c5cnc(N)c(S(=O)(=O)N[C@H]6CC[C@H](N)CC6)c5)cc4C3)c2C1 [Example 416, 2-amino-N-(trans-4-aminocyclohexyl)-5-[4-(6,6-dimethyl-5,6,7,8-tetrahydroquinazolin-4-yl)-2,3,4,5-tetrahydro-1,4-benzoxazepin-7-yl]pyridine-3-sulfonamide] |
| 250 to 1000 | Cc1nc2c(c(N3CCOc4ccc(-c5cnc(N)c(S(=O)(=O)NCC6CCN(C)CC6)c5)cc4C3)n1)CC(C)(C)CC2 [Example 419, 2-amino-N-[(1-methylpiperidin-4-yl)methyl]-5-[4-(2,6,6-trimethyl-5,6,7,8-tetrahydroquinazolin-4-yl)-2,3,4,5-tetrahydro-1,4-benzoxazepin-7-yl]pyridine-3-sulfonamide] |
| 50 to 250 | CC1=CC(C)(C)Cc2c1ncnc2N1CCOc2ccc(-c3cnc(N)c(S(=O)(=O)N[C@@H]4CCN(C)C4)c3)cc2C1 [Example 422, 2-amino-N-[(3R)-1-methylpyrrolidin-3-yl]-5-[4-(6,6,8-trimethyl-5,6-dihydroquinazolin-4-yl)-2,3,4,5-tetrahydro-1,4-benzoxazepin-7-yl]pyridine-3-sulfonamide] |
| 10 to 50 | CC1(C)CCc2ncnc(N3CCOc4ccc(-c5cnc(N)c(S(=O)(=O)NC6CNC6)c5)cc4C3)c2C1 [Example 426, 2-amino-N-azetidin-3-yl-5-[4-(6,6-dimethyl-5,6,7,8-tetrahydroquinazolin-4-yl)-2,3,4,5-tetrahydro-1,4-benzoxazepin-7-yl]pyridine-3-sulfonamide] |
| ≥ 2000 | CN(C)Cc1nc2c(c(N3CCOc4ccc(-c5ccc(Cl)c(C(N)=O)c5)cc4C3)n1)CC(C)(C)CC2 [Example 428, 2-chloro-5-(4-{2-[(dimethylamino)methyl]-6,6-dimethyl-5,6,7,8-tetrahydroquinazolin-4-yl}-2,3,4,5-tetrahydro-1,4-benzoxazepin-7-yl)benzamide] |
